# Target: T1, human recombinant PLA2 group II enzyme (Homo sapiens, UniProt P14555)
# T1 sequence (P14555 21-144): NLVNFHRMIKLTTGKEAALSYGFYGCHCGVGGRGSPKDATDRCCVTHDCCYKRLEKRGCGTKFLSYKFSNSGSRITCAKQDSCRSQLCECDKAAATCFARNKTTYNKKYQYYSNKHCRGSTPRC
# Test: Test on the inhibitory effect against phospholipase A2 (PLA2), fluorescent phospholipid substrate
# Assay type: biochemical
# Conditions: dose 1 × 10^−6 M; 10-pyrene PA-monomethyl ester substrate, room temperature, 10 minutes; read-out: Percent inhibition: inhibition (%)
# Protocol: Test on the inhibitory effect against phospholipase A2 (PLA2)
# PLA2 activity was assayed with a fluorescent phospholipid analogue [1-palmitoyl-2-(10-pyrenyldecanoyl)-sn-glycero-3-monomethylphosphatidic acid(10-pyrene PA-monomethyl ester)] as a substrate, according to Radvanyi et al. (1989) with several modifications. Briefly, the reaction medium was prepared by sequential addition of 1160 μl of 50 mM Tris-HCl (pH 7.4) buffer containing 100 mM NaCl and 1 mM EDTA, 10 μl of 120 μM 10-pyrene PA-monomethyl ester in ethanol, 10 μl of drug sample in methanol and 10 μl of 1.2 μg/ml human recombinant PLA2 group II enzyme. The enzymatic reaction was then initiated with 10 μl of 0.84 M CaCl2. Following incubation at room temperature for 10 minutes, the reaction was terminated by addition of 25 μl of 1 M EDTA and 10 μl of 10 mg/ml β-cyclodextrin. Fluorescence measurements were carried out with a JASCO Corporation FP-777 spectrofluorometer. Excitation and emission wavelengths were 345 nm and 380 nm, respectively. All data are the average of at least duplicate determinations corrected for the spontaneous fluorescence of the reaction medium. Data were expressed as percent inhibition.
# F. Radvanyi, L. Jordan, F. Russo-Marie and C. Bon: A sensitive and continuous fluorometric assay for phospholipase A2 using pyrene-labeled phospholipids in the presence of serum albumin. […]
row,SMILES,inhibition at 1 µM
1,"NC(=O)C[C@H](Cc1ccc2ccccc2c1)OC(=O)[C@H](CCCC(=O)O)NC(=O)c1cc2ccccc2cc1Cc1ccccc1 [Example 24, (3S)-3-[(2S)-2-(3-Benzylnaphthalen-2-ylcarbonylamino)-5-carboxypentanoyl]oxy-4-(2-naphthyl)butanamide]",100%

# System: not given
# Test: not given
# Conditions: not given
row,SMILES,melting point
1,CCCN(C(=O)[C@H](CCC(=O)O)NC(=O)c1cn(Cc2ccccc2Cl)c2ccccc12)[C@H](CC(N)=O)Cc1ccc2ccccc2c1,85 to 92 °C
2,CCCCc1ccc(C[C@@H](CC(N)=O)N(CCCC)C(=O)[C@H](CCCC(=O)O)NC(=O)c2cn(Cc3ccccc3Cl)c3ccccc23)cc1,166 to 168 °C
3,CCCCc1ccc(C[C@@H](CC(N)=O)N(CCCC)C(=O)[C@H](CCCC(=O)O)NC(=O)c2cn(Cc3ccccc3)c3ccccc23)cc1,77 to 82 °C
4,CCCCc1ccc(C[C@@H](CC(N)=O)N(CCC)C(=O)[C@H](CCCC(=O)O)NC(=O)c2cn(Cc3ccccc3Cl)c3ccccc23)cc1,83 to 87 °C
5,CCCCc1ccc(C[C@@H](CC(N)=O)N(CCC)C(=O)[C@H](CCCC(=O)O)NC(=O)c2cn(Cc3ccccc3)c3ccccc23)cc1,82 to 88 °C
6,CCCN(C(=O)[C@H](CCCC(=O)O)NC(=O)c1cn(Cc2ccccc2Cl)c2ccccc12)[C@H](CC(N)=O)Cc1ccc(C)cc1,79 to 96 °C
7,CCCN(C(=O)[C@H](CCCC(=O)O)NC(=O)c1cn(Cc2ccccc2)c2ccccc12)[C@H](CC(N)=O)Cc1ccc(C)cc1,83 to 92 °C
8,CCCCN(C(=O)[C@H](CCCC(=O)O)NC(=O)c1cn(Cc2ccccc2Cl)c2ccccc12)[C@H](CC(N)=O)Cc1ccc2ccccc2c1,104 to 110 °C
9,CCCCN(C(=O)[C@H](CCCC(=O)O)NC(=O)c1cn(Cc2ccccc2)c2ccccc12)[C@H](CC(N)=O)Cc1ccc2ccccc2c1,90 to 96 °C
10,CCN(C(=O)[C@H](CCCC(=O)O)NC(=O)c1cn(Cc2ccccc2Cl)c2ccccc12)[C@H](CC(N)=O)Cc1ccc2ccccc2c1,110 to 114 °C
11,CCN(C(=O)[C@H](CCCC(=O)O)NC(=O)c1cn(Cc2cccc3ccccc23)c2ccccc12)[C@H](CC(N)=O)Cc1ccc2ccccc2c1,118 to 126 °C
12,CCN(C(=O)[C@H](CCCC(=O)O)NC(=O)c1cn(Cc2ccccc2)c2ccccc12)[C@H](CC(N)=O)Cc1ccc2ccccc2c1,110 to 112 °C
13,CCCCCN(C(=O)[C@H](CCCC(=O)O)NC(=O)c1cn(Cc2ccccc2)c2ccccc12)[C@H](CC(N)=O)Cc1ccc2ccccc2c1,89 to 93 °C
14,CCCCCN(C(=O)[C@H](CCCC(=O)O)NC(=O)c1cn(Cc2cccc3ccccc23)c2ccccc12)[C@H](CC(N)=O)Cc1ccc2ccccc2c1,112 to 116 °C
15,CCCN(C(=O)[C@H](CCCC(=O)O)NC(=O)c1cn(Cc2cccc3ccccc23)c2ccccc12)[C@H](CC(N)=O)Cc1ccc2ccccc2c1,123 to 126 °C
16,CCCN(C(=O)[C@H](CCCC(=O)O)NC(=O)c1cn(Cc2ccccc2)c2ccccc12)[C@H](CC(N)=O)Cc1ccc2ccccc2c1,91 to 94 °C
17,CCCCCCCCCCCCC[C@@H](CC(N)=O)N(Cc1ccccn1)C(=O)[C@H](CCCC(=O)O)NC(=O)c1ccc2ccccc2n1.Cl.Cl,74 to 81 °C
18,CCCCCCCCCCCCC[C@@H](CC(N)=O)N(CCC)C(=O)[C@H](CCCC(=O)O)NC(=O)c1ccc2ccccc2n1.Cl,59 to 62 °C
19,CCCCCCCCC[C@@H](CC(N)=O)N(CCCCC)C(=O)[C@H](CCCC(=O)O)NC(=O)c1cn(Cc2ccccc2)c2ccccc12,125 to 127 °C
20,CCCCCC[C@@H](CC(N)=O)N(CCCCC)C(=O)[C@H](CCCC(=O)O)NC(=O)c1cn(Cc2ccccc2)c2ccccc12,127 to 129 °C
21,CCCCCC[C@@H](CC(N)=O)N(CCCC)C(=O)[C@H](CCCC(=O)O)NC(=O)c1cn(Cc2ccccc2)c2ccccc12,124 to 127 °C
22,CCCCCC[C@@H](CC(N)=O)N(CCCC)C(=O)[C@H](CCCC(=O)O)NC(=O)c1cn(Cc2ccccc2Cl)c2ccccc12,153 to 156 °C

row,SMILES,melting point
1,CCCCCC[C@@H](CC(N)=O)N(CCC)C(=O)[C@H](CCCC(=O)O)NC(=O)c1cn(Cc2cccc(Cl)c2)c2ccccc12,106 to 109 °C
2,CCCCCC[C@@H](CC(N)=O)N(CCC)C(=O)[C@H](CCCC(=O)O)NC(=O)c1cn(Cc2cccc3ccccc23)c2ccccc12,139 to 141 °C
3,CCCCCC[C@@H](CC(N)=O)N(CCC)C(=O)[C@H](CCCC(=O)O)NC(=O)c1cn(Cc2ccccn2)c2ccccc12,78 to 95 °C
4,CCCCCC[C@@H](CC(N)=O)N(CCC)C(=O)[C@H](CCCC(=O)O)NC(=O)c1cn(Cc2ccccc2Cl)c2ccccc12,175 to 180 °C
5,CCCC[C@@H](CC(N)=O)N(CCC)C(=O)[C@H](CCCC(=O)O)NC(=O)c1cn(Cc2ccccc2Cl)c2ccccc12,95 to 98 °C
6,CCCC[C@@H](CC(N)=O)N(CCC)C(=O)[C@H](CCCC(=O)O)NC(=O)c1cn(Cc2cccc3ccccc23)c2ccccc12,98 to 116 °C
7,CCCN(C(=O)[C@H](CCCC(=O)O)NC(=O)c1cn(Cc2ccccn2)c2ccccc12)[C@H](CC(N)=O)Cc1ccc2cc(CC)ccc2c1,110 to 116 °C
8,CCCN(C(=O)[C@H](CCCC(=O)O)NC(=O)c1cn(Cc2ccccc2)c2ccccc12)[C@H](CC(N)=O)Cc1ccc2cc(CC)ccc2c1,105 to 116 °C
9,CCCCN(C(=O)[C@H](CCCC(=O)O)NC(=O)c1cn(Cc2ccccc2)c2ccccc12)[C@H](CC(N)=O)Cc1ccc2cc(CC)ccc2c1,100 to 116 °C
10,CCCCN(C(=O)[C@H](CCCC(=O)O)NC(=O)c1cn(Cc2ccccc2Cl)c2ccccc12)[C@H](CC(N)=O)Cc1ccc2cc(CC)ccc2c1,100 to 116 °C
11,CCCCCCCCC[C@@H](CC(N)=O)N(CCC)C(=O)[C@H](CCCC(=O)O)NC(=O)c1cn(Cc2ccccc2)c2ccccc12,155 to 160 °C
12,CCCCCCCCC[C@@H](CC(N)=O)N(CCC)C(=O)[C@H](CCCC(=O)O)NC(=O)c1cn(Cc2ccccc2Cl)c2ccccc12,145 to 150 °C
13,CCCCCCCc1ccc(C[C@@H](CC(N)=O)N(CCCC)C(=O)[C@H](CCCC(=O)O)NC(=O)c2cn(Cc3ccccc3Cl)c3ccccc23)cc1,79 to 81 °C
14,CCCCCC[C@@H](CC(N)=O)N(CC)C(=O)[C@H](CCCC(=O)O)NC(=O)c1cn(Cc2ccccc2Cl)c2ccccc12,180 to 183 °C
15,CCCCCC[C@@H](CC(N)=O)N(CC)C(=O)[C@H](CCCC(=O)O)NC(=O)c1cn(Cc2ccccc2)c2ccccc12,80 to 85 °C
16,CCCC[C@@H](CC(N)=O)N(CCCC)C(=O)[C@H](CCCC(=O)O)NC(=O)c1cn(Cc2ccccc2Cl)c2ccccc12,105 to 110 °C
17,CCCC[C@@H](CC(N)=O)N(CCCC)C(=O)[C@H](CCCC(=O)O)NC(=O)c1cn(Cc2cccc3ccccc23)c2ccccc12,105 to 113 °C
18,CCCCCC[C@@H](CC(N)=O)N(CCC)C(=O)[C@H](CCCC(=O)O)NC(=O)c1cn(Cc2ccccc2)c2ccccc12,147 to 157 °C
19,"CC(C)(C)OC(=O)N[C@@H](CCCC(=O)OCc1ccccc1)C(=O)O[C@H](CC(N)=O)Cc1ccc(-c2ccccc2)cc1 [Example 40, (3S)-3-[(2S)-5-Benzyloxycarbonyl-2-(tert-butoxycarbonylamino)pentanoyl]oxy-4-(4-biphenylyl)butanamide]",94 to 98 °C
20,"CCCCCCCCCCCCC[C@@H](CC(N)=O)N(CC(C)C)C(=O)[C@H](CCCC(=O)O)NC(=O)c1ccc2ccccc2n1 [Example 149, (3S)-3-[N-Isobutyl-{(2S)-5-carboxy-2-(2-quinolylcarbonylamino)pentanoyl}amino]hexadecanamide]",65 to 66 °C
21,"Cc1ccc(Cn2c(C(=O)N[C@@H](CCCC(=O)O)C(=O)O[C@H](CC(N)=O)Cc3ccc4ccccc4c3)cc3ccccc32)cc1 [Example 165, (3S)-3-[(2S)-5-Carboxy-2-[{1-(4-methylbenzyl)indol-2-ylcarbonyl}amino]pentanoyl]oxy-4-(2-naphthyl)butanamide]",86 to 90 °C
22,"CN(CCC(N)=O)C(=O)[C@H](CCCC(=O)O)NC(=O)c1cc2ccccc2cc1Cc1ccccc1 [Example 180, 3-[N-Methyl-{(2S)-2-(3-benzylnaphthalen-2-ylcarbonyl)amino-5-carboxypentanoyl}amino]propanamide]",147 to 157 °C
